According to article PMC5218887 (Neurochemistry International, 2017):
“Also recorded” adds a separate entry of the source. Non-standard residues stand in square brackets, D forms with d. Primed or numbered codes have the meaning given here. No end group written: not given here. pS′ = not defined here

Key:
human GPR139 [1] = biological target: T1, human GPR139 (Homo sapiens, UniProt Q6DWJ6); assay: Fluo-4 Ca2+-assay, agonist testing on CHO-GPR139; assay type: cell-based; settings: for agonist activity on GPR139: CHO-GPR139, result in words; for relative Emax ± SEM: compared to Emax of cmp1a
T1 sequence (Q6DWJ6 1-353): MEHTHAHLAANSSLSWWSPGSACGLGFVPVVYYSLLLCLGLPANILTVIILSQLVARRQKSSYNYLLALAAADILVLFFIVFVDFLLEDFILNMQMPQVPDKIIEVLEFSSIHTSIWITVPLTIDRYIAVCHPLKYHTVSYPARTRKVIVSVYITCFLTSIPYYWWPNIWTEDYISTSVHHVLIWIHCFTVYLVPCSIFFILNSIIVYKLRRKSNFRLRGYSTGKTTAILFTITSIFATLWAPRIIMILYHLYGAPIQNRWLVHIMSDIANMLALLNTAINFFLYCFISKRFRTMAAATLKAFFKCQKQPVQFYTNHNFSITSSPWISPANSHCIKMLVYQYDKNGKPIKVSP

human GPR139 [2] = biological target: T1, human GPR139; assay: Fluo-4 Ca2+-assay, antagonist testing against EC80; assay type: cell-based; settings: against EC80 (800 nM) of cmp1a; data not shown
GPR139 [3] = settings: rats; ref Liu et al., 2015; cited from earlier work
GPR139 [4] = settings: read-out: EC50 on GPR139; ref Isberg et al., 2014; cited from earlier work
[5] = biological target: T2, human muscarinic acetylcholine receptor M1 (Homo sapiens, UniProt P11229); assay: Fluo-4 Ca2+-assay on CHO-M1; assay type: cell-based; settings: CHO-M1, specificity test; data not shown
T2 sequence (P11229 1-460): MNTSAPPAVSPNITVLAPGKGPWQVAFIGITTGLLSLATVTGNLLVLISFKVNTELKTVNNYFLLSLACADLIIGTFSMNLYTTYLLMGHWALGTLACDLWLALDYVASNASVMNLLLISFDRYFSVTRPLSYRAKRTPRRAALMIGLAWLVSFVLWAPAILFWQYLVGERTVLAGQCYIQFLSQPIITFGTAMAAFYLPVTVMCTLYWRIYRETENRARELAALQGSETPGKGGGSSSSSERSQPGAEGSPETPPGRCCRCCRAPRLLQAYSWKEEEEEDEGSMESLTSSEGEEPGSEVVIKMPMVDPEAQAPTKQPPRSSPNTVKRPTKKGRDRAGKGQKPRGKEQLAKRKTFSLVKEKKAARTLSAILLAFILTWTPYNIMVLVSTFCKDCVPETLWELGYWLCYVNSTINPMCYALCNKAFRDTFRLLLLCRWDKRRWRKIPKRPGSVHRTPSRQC

MC4R = MC4R (Homo sapiens, UniProt P32245); assay: cAMP accumulation assay; assay type: cell-based; settings: tested in the highest concentration; normalized to Emax of α-MSH
Chain of MC4R (P32245 whole entry, species assumed): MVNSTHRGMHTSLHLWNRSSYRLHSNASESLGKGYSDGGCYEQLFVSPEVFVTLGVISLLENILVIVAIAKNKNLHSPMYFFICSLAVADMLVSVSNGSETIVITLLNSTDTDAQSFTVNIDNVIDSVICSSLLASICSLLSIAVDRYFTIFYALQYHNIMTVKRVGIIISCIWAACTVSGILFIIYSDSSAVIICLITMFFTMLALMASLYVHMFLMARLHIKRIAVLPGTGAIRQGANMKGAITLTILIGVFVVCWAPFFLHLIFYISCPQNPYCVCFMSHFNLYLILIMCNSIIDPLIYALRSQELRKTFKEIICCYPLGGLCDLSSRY

agonist activity on GPR139 (human GPR139 [1])	antagonist activity on GPR139 (human GPR139 [2])	Compound	also measured
No agonist or antagonist activity	No agonist or antagonist activity	26RFa	
		N=C(N)NCCC[C@H](NC(=O)[C@H](Cc1ccccc1)NC(=O)[C@@H](N)Cc1c[nH]cn1)C(=O)N[C@@H](Cc1c[nH]c2ccccc12)C(=O)O [HFRW]	Emax (human GPR139 [1]; read-out: relative Emax ± SEM): 64 ± 6%
		C[C@H](NC(=O)CNC(=O)c1cccc(Cl)c1)c1ccccc1 [JNJ-63533054]	spontaneous locomotion activity (GPR139 [3]): decreased spontaneous locomotion activity
		N[C@@H](Cc1ccccc1)C(=O)O [L-Phe, L-phenylalanine]	EC50 (GPR139 [4]): 320 µM
		N[C@@H](Cc1c[nH]c2ccccc12)C(=O)O [L-Trp, L-tryptophan]	EC50 (GPR139 [4]): 220 µM
		CSCC[C@H](NC(=O)[C@H](CO)NC(=O)[C@H](Cc1ccc(O)cc1)NC(=O)[C@H](CO)NC(C)=O)C(=O)N[C@@H](CCC(=O)O)C(=O)N[C@@H](Cc1c[nH]cn1)C(=O)N[C@@H](Cc1ccccc1)C(=O)N[C@@H](CCCNC(=N)N)C(=O)N[C@@H](Cc1c[nH]c2ccccc12)C(=O)NCC(N)=O [cap-α-MSH1-10]	Emax at 14 µM (human GPR139 [1]; read-out: relative Emax ± SEM): 31 ± 4%
		COc1cc(OC)cc(C(=O)NNC(=O)Nc2cccc3ccccc23)c1 [compound 1a, 2-(3,5-dimethoxybenzoyl)-N-(naphthalen-1-yl)hydrazine-1-carboxamide]	EC80 on GPR139 (human GPR139 [1]; concentration used for antagonist testing): 0.8 µM
		Ac-SYSMEHFRW-NH2 [cap-α-MSH1-9]	Emax at 61 µM (human GPR139 [1]; read-out: relative Emax ± SEM): 53 ± 9%; response of α-MSH on MC4R (MC4R): 50%
		MEHFRWG [α-MSH4-10]	relative Emax ± SEM (human GPR139 [1]; at 101 μM (highest concentration tested, no plateau)): 13 ± 2 (at 101 μM) %
No agonist or antagonist activity	No agonist or antagonist activity	[Arg^8]-vasopressin	
		cap-α-MSH4-10: α-MSH4-10 (MEHFRWG), N-terminal acetylated and C-terminal amidated	relative Emax ± SEM (human GPR139 [1]; at 16 μM (highest concentration tested, no plateau)): 21 ± 8 (at 16 μM) %
No agonist or antagonist activity	No agonist or antagonist activity	melanin-concentrating hormone [MCH]	
No agonist or antagonist activity	No agonist or antagonist activity	oxytocin	
No agonist or antagonist activity	No agonist or antagonist activity	thyrotropin releasing hormone [TRH]	

Compound	agonist activity on GPR139 (human GPR139 [1])	antagonist activity on GPR139 (human GPR139 [2])	also measured
CSCC[C@H](NC(=O)[C@H](CCCNC(=N)N)NC(=O)[C@H](Cc1ccc(O)cc1)NC(=O)[C@@H]1CCCN1C(=O)CNC(=O)[C@H](CCC(=O)O)NC(=O)[C@H](CC(=O)O)NC(=O)[C@H](CCCCN)NC(=O)[C@H](CCCCN)NC(=O)[C@H](CCC(=O)O)NC(=O)[C@H](C)N)C(=O)N[C@@H](CCC(=O)O)C(=O)N[C@@H](Cc1c[nH]cn1)C(=O)N[C@@H](Cc1ccccc1)C(=O)N[C@@H](CCCNC(=N)N)C(=O)N[C@@H](Cc1c[nH]c2ccccc12)C(=O)NCC(=O)N[C@@H](CO)C(=O)N1CCC[C@H]1C(=O)N1CCC[C@H]1C(=O)N[C@@H](CCCCN)C(=O)N[C@@H](CC(=O)O)C(=O)O [β-MSH]	showed agonist activity		fold more potent on GPR139 than L-Trp and L-Phe (human GPR139 [1]; compared with L-Trp (EC50 = 220 μM) and L-Phe (EC50 = 320 μM)): 20–120 fold; Emax (human GPR139 [1]; read-out: relative Emax ± SEM): 101 ± 11%; activity on the muscarinic acetylcholine M1 receptor [5]: none of these peptides showed any activity
SY[pSer]SMEHFRWGKPV-NH2 (N-terminal SY[pSer]; C-terminal amide) [α-MSHP-Ser]	neither of the two peptides showed any agonist or antagonist activity	neither of the two peptides showed any agonist or antagonist activity	
SY[pSer]SMEHFRWGKPVGKK (SY[pS′]SMEHFRWGKPVGKK) [ACTH1-16,P-Ser]	neither of the two peptides showed any agonist or antagonist activity	neither of the two peptides showed any agonist or antagonist activity	
γ1-melanocyte stimulating hormone [γ1-MSH]	No agonist or antagonist activity; also recorded: did not show any activity	No agonist or antagonist activity	
